Data published in PubChem BioAssay AID330 (DTP/NCI, 2004).
Several values for one entry are separate records, joined by “and”; a condition that tells them apart may be missing. Equal entries are not always repeated. Toxic doses and inconclusive results are not listed. Rule for the calls: active = survival T/C of 150% or more; inactive = T/C below 125% in these data.

Tested on: P388 leukemia ip, CD2F1 mice, survival T/C
Experiment: NCI In Vivo Anticancer Drug Screen. Data for tumor model P388 Leukemia (intraperitoneal) in CD2F1 (CDF1) mice
Conditions: endpoint: median survival time, higher = longer survival
Outline: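 Mice carrying the transplanted tumor received test compound or vehicle. Survival was recorded in each group, and the value is the treated-group measurement divided by that of the vehicle-treated control group.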

[1] = dose: 50.0 mg/kg/injection, schedule: Q01DX005 (ip), vehicle: saline with Tween-80
[2] = dose: 100.0 mg/kg/injection, schedule: Q01DX005 (ip), vehicle: saline with Tween-80
[3] = dose: 200.0 mg/kg/injection, schedule: Q01DX005 (ip), vehicle: saline with Tween-80
[4] = dose: 100.0 mg/kg/injection, schedule: Q01DX001 (ip), vehicle: saline with Tween-80
[5] = dose: 200.0 mg/kg/injection, schedule: Q01DX001 (ip), vehicle: saline with Tween-80
[6] = dose: 100.0 mg/kg/injection, schedule: Q04DX003 (ip), vehicle: saline with Tween-80
[7] = dose: 200.0 mg/kg/injection, schedule: Q04DX003 (ip), vehicle: saline with Tween-80
[8] = dose: 50.0 mg/kg/injection, schedule: Q01DX009 (ip), vehicle: saline with Tween-80
[9] = dose: 100.0 mg/kg/injection, schedule: Q01DX009 (ip), vehicle: saline with Tween-80
[10] = dose: 12.5 mg/kg/injection, schedule: Q01DX005 (ip), vehicle: Klucel (hydroxypropylcellulose) (HPC)
[11] = dose: 25.0 mg/kg/injection, schedule: Q01DX005 (ip), vehicle: Klucel (hydroxypropylcellulose) (HPC)
[12] = dose: 50.0 mg/kg/injection, schedule: Q01DX005 (ip), vehicle: Klucel (hydroxypropylcellulose) (HPC)
[13] = dose: 25.0 mg/kg/injection, schedule: Q01DX001 (ip), vehicle: Klucel (hydroxypropylcellulose) (HPC)
[14] = dose: 50.0 mg/kg/injection, schedule: Q01DX001 (ip), vehicle: Klucel (hydroxypropylcellulose) (HPC)
[15] = dose: 50.0 mg/kg/injection, schedule: Q01DX009 (ip), vehicle: Klucel (hydroxypropylcellulose) (HPC)
[16] = dose: 100.0 mg/kg/injection, schedule: Q01DX009 (ip), vehicle: Klucel (hydroxypropylcellulose) (HPC)
[17] = dose: 200.0 mg/kg/injection, schedule: Q01DX009 (ip), vehicle: Klucel (hydroxypropylcellulose) (HPC)
[18] = dose: 60.0 mg/kg/injection, schedule: Q01DX005 (ip), vehicle: saline with Tween-80
[19] = dose: 120.0 mg/kg/injection, schedule: Q01DX005 (ip), vehicle: saline with Tween-80
[20] = dose: 240.0 mg/kg/injection, schedule: Q01DX005 (ip), vehicle: saline with Tween-80

Measured: T/C

CN=S(=O)(OCCCCOS(=O)(=NC)c1ccc(C)cc1)c1ccc(C)cc1 (stereo not drawn)
inactive: dose: 50.0 mg/kg/injection, schedule: Q04DX003 (ip), vehicle: saline with Tween-80 116 % of control

CCCCCCCOc1cccc(OCCCC[N+]2(CC)CCCCC2)c1
inactive: dose: 1.56 mg/kg/injection, schedule: Q01DX009 (ip), vehicle: saline 97 % of control | dose: 3.12 mg/kg/injection, schedule: Q01DX009 (ip), vehicle: saline 100 % of control | dose: 6.25 mg/kg/injection, schedule: Q01DX009 (ip), vehicle: saline 100 % of control

S=C(Nc1ccc(I)cc1)SCc1ccco1
inactive: dose: 50.0 mg/kg/injection, schedule: Q01DX009 (ip), vehicle: suspension in saline 90 % of control | dose: 100.0 mg/kg/injection, schedule: Q01DX009 (ip), vehicle: suspension in saline 112 % of control | dose: 200.0 mg/kg/injection, schedule: Q01DX009 (ip), vehicle: suspension in saline 109 % of control

CCOC(=O)c1ccc2c(c1)NCc1cccc(OC)c1O2
inactive: dose: 60.0 mg/kg/injection, schedule: Q01DX005 (ip), vehicle: Klucel (hydroxypropylcellulose) (HPC) 100 % of control | dose: 120.0 mg/kg/injection, schedule: Q01DX005 (ip), vehicle: Klucel (hydroxypropylcellulose) (HPC) 103 % of control | dose: 240.0 mg/kg/injection, schedule: Q01DX005 (ip), vehicle: Klucel (hydroxypropylcellulose) (HPC) 100 % of control

OCC1CC2C=CC1O2 (stereo not drawn)
inactive: [1] 101 % of control | [2] 114 % of control | [3] 95 % of control

CCCOC(=O)Nc1ccc2c(c1)c1c3[nH]c(=O)c4cccn4c3ccc1n2CC
inactive: [4] 94 % of control | [5] 94 % of control

Clc1ccc(CNc2ncnc3[nH]ncc23)c(Cl)c1
inactive: [6] 100 % of control | [7] 100 % of control

CC(C)(c1ccccc1)c1ccc(O)cc1
inactive: dose: 25.0 mg/kg/injection, schedule: Q01DX009 (ip), vehicle: saline with Tween-80 100 % of control | [8] 100 % of control | [9] 100 % of control | [6] 90 % of control

CCOC(=O)c1cnc(NCCCNc2ncc(C(=O)OCC)c(=O)[nH]2)[nH]c1=O
inactive: dose: 6.25 mg/kg/injection, schedule: Q01DX005 (ip), vehicle: Klucel (hydroxypropylcellulose) (HPC) 92 % of control | [10] 101 % of control | [11] 104 % of control | [12] 105 % of control | dose: 100.0 mg/kg/injection, schedule: Q01DX005 (ip), vehicle: Klucel (hydroxypropylcellulose) (HPC) 106 % of control | dose: 200.0 mg/kg/injection, schedule: Q01DX005 (ip), vehicle: Klucel (hydroxypropylcellulose) (HPC) 88 % of control

NC(CC1=CS(=O)(=O)c2ccc(Cl)cc21)C(=O)O (stereo not drawn)
inactive: [13] 99 % of control | [14] 96 % of control | dose: 100.0 mg/kg/injection, schedule: Q01DX001 (ip), vehicle: Klucel (hydroxypropylcellulose) (HPC) 101 % of control

CNC(=O)OCc1c(-c2ccccc2)c(-c2ccccc2)n(-c2ccc(OC)cc2)c1COC(=O)NC
inactive: dose: 12.5 mg/kg/injection, schedule: Q01DX009 (ip), vehicle: distilled water + Tween-80 106 % of control | dose: 25.0 mg/kg/injection, schedule: Q01DX009 (ip), vehicle: distilled water + Tween-80 103 % of control and 119 % of control | dose: 50.0 mg/kg/injection, schedule: Q01DX009 (ip), vehicle: distilled water + Tween-80 102 % of control and 119 % of control | dose: 100.0 mg/kg/injection, schedule: Q01DX009 (ip), vehicle: distilled water + Tween-80 116 % of control and 124 % of control

O=C(O)C1(N(CCO)CCO)CCCC1
inactive: dose: 50.0 mg/kg/injection, schedule: Q01DX005 (ip), vehicle: saline 104 % of control | dose: 100.0 mg/kg/injection, schedule: Q01DX005 (ip), vehicle: saline 100 % of control | dose: 200.0 mg/kg/injection, schedule: Q01DX005 (ip), vehicle: saline 106 % of control

CCCCCCC(O)C/C=C\CCCCCCCC(=O)O (stereo not drawn)
inactive: [15] 107 % of control | [16] 107 % of control | [17] 102 % of control | dose: 400.0 mg/kg/injection, schedule: Q01DX009 (ip), vehicle: Klucel (hydroxypropylcellulose) (HPC) 95 % of control

O=C(CCl)N1CCN(C(c2ccccc2)c2ccccc2)CC1
inactive: [18] 99 % of control | [19] 100 % of control | [20] 99 % of control

CC(=O)NCCSc1nc(-c2ccccc2)c(-c2ccccc2)o1
inactive: [15] 95 % of control | [16] 104 % of control | [17] 101 % of control

CC(C)c1ccc2nc3ccc(C(=O)NCCN4CCN(c5ccccc5)CC4)cn3c(=O)c2c1
inactive: [18] 97 % of control | [19] 89 % of control | [20] 92 % of control

[CH3][Sn]1([CH3])[O]C(=O)c2ccccc2C(=O)[O]1
inactive: dose: 12.5 mg/kg/injection, schedule: Q01DX001 (ip), vehicle: Klucel (hydroxypropylcellulose) (HPC) 102 % of control and 111 % of control | [13] 101 % of control and 102 % of control | [14] 100 % of control

O=C1NC(=O)/C(=C\c2ccccc2)C2=C1CCCC2
inactive: [10] 103 % of control | [11] 103 % of control | [12] 108 % of control

CCCCCSc1ncnc2nc[nH]c12
inactive: [8] 100 % of control | [9] 109 % of control | dose: 100.05 mg/kg/injection, schedule: Q04DX003 (ip), vehicle: saline with Tween-80 95 % of control | dose: 200.0 mg/kg/injection, schedule: Q01DX009 (ip), vehicle: saline with Tween-80 104 % of control | [7] 104 % of control

O=C(NNc1ccccc1)N(Nc1ccccc1)C(=O)Nc1ccccc1
inactive: [1] 99 % of control | [2] 91 % of control | [3] 99 % of control

COc1ccc(C2c3c(ccc4ccccc34)Oc3ccc4ccccc4c32)cc1
inactive: [18] 87 % of control | [19] 86 % of control | [20] 90 % of control

CN(C)C(C#CCO)c1ccccc1 (stereo not drawn)
inactive: dose: 60.0 mg/kg/injection, schedule: Q01DX005 (ip), vehicle: saline 100 % of control | dose: 120.0 mg/kg/injection, schedule: Q01DX005 (ip), vehicle: saline 103 % of control | dose: 240.0 mg/kg/injection, schedule: Q01DX005 (ip), vehicle: saline 101 % of control

c1ccc(OCC(COc2ccccc2)(COc2ccccc2)COc2ccccc2)cc1
inactive: dose: 7.5 mg/kg/injection, schedule: Q01DX009 (ip), vehicle: saline with Tween-80 107 % of control | dose: 15.0 mg/kg/injection, schedule: Q01DX009 (ip), vehicle: saline with Tween-80 107 % of control | dose: 30.0 mg/kg/injection, schedule: Q01DX009 (ip), vehicle: saline with Tween-80 104 % of control

O=S(=O)(Nc1cccnc1)c1ccccc1
inactive: [18] 106 % of control | [19] 100 % of control | [20] 105 % of control

Cc1c2ccn(Cc3ccccc3)cc2c(C)c2c1nc1ccccc12
inactive: dose: 19.25 mg/kg/injection, schedule: Q04DX002 (ip), vehicle: saline with Tween-80 121 % of control | dose: 38.5 mg/kg/injection, schedule: Q04DX002 (ip), vehicle: saline with Tween-80 113 % of control

COc1cc(C)c2c(c1OC)C(=O)OC2
inactive: dose: 100.0 mg/kg/injection, schedule: Q04DX003 (ip), vehicle: Klucel (hydroxypropylcellulose) (HPC) 98 % of control | dose: 200.0 mg/kg/injection, schedule: Q04DX003 (ip), vehicle: Klucel (hydroxypropylcellulose) (HPC) 97 % of control | dose: 400.0 mg/kg/injection, schedule: Q04DX003 (ip), vehicle: Klucel (hydroxypropylcellulose) (HPC) 98 % of control

CCCCOC(=O)N(C)SN(C)C(=O)Oc1cccc(C(C)C)c1
inactive: [8] 121 % of control

CCOC(=O)c1[nH]ncc1[N+](=O)[O-]
inactive: [4] 103 % of control | [5] 102 % of control | dose: 400.0 mg/kg/injection, schedule: Q01DX001 (ip), vehicle: saline with Tween-80 102 % of control

Cc1cc(C)[n+]2n1C(=O)C(c1ccccc1)=C2[O-]
inactive: dose: 50.0 mg/kg/injection, schedule: Q01DX005 (ip), vehicle: Klucel + Tween-80 101 % of control | dose: 100.0 mg/kg/injection, schedule: Q01DX005 (ip), vehicle: Klucel + Tween-80 102 % of control | dose: 200.0 mg/kg/injection, schedule: Q01DX005 (ip), vehicle: Klucel + Tween-80 101 % of control
